Laboratory results: patent US10626100B2, “Selective HDAC6 inhibitors” (The Trustees of Columbia University in the City of New York, priority 2013, dated 2020)
Entries after “also recorded” stand apart in the source; their conditions may differ.

Key:
HDAC1 = HDAC1 (Homo sapiens, UniProt Q13547); experiment: Inhibition of recombinant HDAC1; format: biochemical; settings: read-out: IC50 (nM) HCAC1
[1] = system: acetylated alpha-tubulin and acetylated histone H3 in LNCaP (human prostate cancer cells); experiment: Accumulation of acetylated proteins in LNCaP cells (western blot); format: cell-based
Description: FIG. 2. Blot showing accumulation of acetylated alpha-tubulin and acetylated histone H3 in LNCaP (human prostate cancer cells) cultured with compounds 8 or 11. GADPH used as loading control.
(§1) FIG. 5. Western blots of acetylated alpha-tubulin (Acet-Tub) and acetylated histone H3 (Acet-H3) in HFS (normal) and LNCaP (transformed) cells treated with compound 8 at 8, 16, 32, and 64 μM for 24 h. Western blots of GAPDH and total histone H3 (Total-H3) are loading controls.
(§2) Recombinant HDAC1 and HDAC6 are used to evaluate the selective inhibitory potency of each compound. Cell based assays: Normal cells (Human Foreskin Fibroblast cells), LNCaP (human prostate cancer cells), MCF-7 (human breast cancer cells, A549 (human adenocarcinoma of lung cells) and ARP-1 (human multiple myeloma cells) are used in these assays. Cells were cultured for up to 72 hr without and with the potential HDAC6-selective inhibitor. SAHA was used as a control. Cell number and cell viability were determined by enumeration. Proteins were extracted from cells and assayed for accumulation of acetylated tubulin and acetylated histones. All methods are described in Namdar et al., PNAS, 2010, 107:20003-8. In vivo animal studies: Potential HDAC6 inhibitor compounds are further assayed by administration to mice for up to 5 days with daily injections. Animals are sacrificed and tissues are analyzed for accumulation of acetylated tubulin and acetylated histones.

[2] = system: acetylated alpha-tubulin and acetylated histone H3 in HFS (human foreskin fibroblast) cells; experiment: Accumulation of acetylated proteins in HFS normal cells (western blot); format: cell-based
Description: as §1, §2

[3] = system: LNCaP (human prostate adenocarcinoma) cells; experiment: Cell growth and viability of LNCaP cells; format: cell-based
Description: FIG. 3. Cell growth of HFS (normal) and LNCaP (transformed) cells treated with compound 8 over 72 h.
FIG. 4. Cell viability of HFS (normal) and LNCaP (transformed) cells treated with compound 8 over 72 h.
as §2
The effect of compound 8 on the cell growth and viability of normal (HFS, human foreskin fibroblast) and transformed (LNCaP, human prostate adenocarcinoma) cells cultured with 8, 16, 32 or 64 μM HPB for up to 72 h was evaluated.

[4] = system: acetylated alpha-tubulin and acetylated histone H3 in spleen; experiment: Acetylation of alpha-tubulin and histones in spleen of treated mice; format: in vivo
Description: FIG. 7. Immunoblots of spleens harvested at indicated times after the last injection. Immune-deficient mice were treated daily by 30 μL intraperitoneal injection with indicated doses of compound 8. DMSO is the vehicle control. Western blots of acetylated alpha-tubulin (Acet-Tub) and acetylated histone H3 (Acet-H3). Western blots of HSP90 and total histone H3 (Total-H3) are loading controls.
as §2
Toxicity of compound 8 in mice was determined. […] Mice were intraperitoneally injected daily for 5 days with 100, 200, or 300 mg/kg compound 8. […] The effects of compound 8 on the acetylation of alpha-tubulin and histones in the spleen isolated from mice treated with compound 8 were analyzed at three time points after the administration of the drug.

[5] = system: LNCaP (transformed) cells; experiment: Combination with anti-cancer agents in LNCaP cells; format: cell-based
[6] = system: androgen-dependent CWR22 human prostate cancer xenograft; experiment: CWR22 human prostate cancer xenograft in nude mice; format: in vivo
[7] = LNCaP cells, 8 μM to 64 μM, 24 h, FIG. 5
[8] = transformed cells, concentrations as high as 16 μM
[9] = HFS cells, 8 μM to 64 μM, 24 h, FIG. 5
[10] = normal cells, concentrations as high as 16 μM
[11] = 21 days, daily 300 mg/kg compound 8 or weekly 3 mg/kg etoposide alone

HDAC1, sequence (Q13547 whole entry): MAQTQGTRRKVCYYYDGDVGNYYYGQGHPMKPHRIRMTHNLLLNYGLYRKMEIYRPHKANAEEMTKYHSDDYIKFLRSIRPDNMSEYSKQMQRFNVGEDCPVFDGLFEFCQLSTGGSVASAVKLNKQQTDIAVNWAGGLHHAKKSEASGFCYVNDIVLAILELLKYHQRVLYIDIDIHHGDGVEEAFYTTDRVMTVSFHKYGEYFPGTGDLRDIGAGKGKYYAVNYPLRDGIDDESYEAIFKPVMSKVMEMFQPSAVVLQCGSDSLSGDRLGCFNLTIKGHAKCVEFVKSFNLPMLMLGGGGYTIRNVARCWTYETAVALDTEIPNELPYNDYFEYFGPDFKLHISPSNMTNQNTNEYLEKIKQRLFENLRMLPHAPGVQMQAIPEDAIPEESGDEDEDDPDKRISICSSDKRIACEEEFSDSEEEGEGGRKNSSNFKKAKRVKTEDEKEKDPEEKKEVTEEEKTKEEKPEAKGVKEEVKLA

SMILES: O=C(NO)c1ccc(CN(CCO)C(=O)Cc2ccccc2)cc1 [Compound 8, N-hydroxy-4-((N-(2-hydroxyethyl)-2-phenylacetamido)methyl) benzamide]
- IC50 (HDAC1): 1130 nM
- accumulation of acetylated alpha-tubulin [1, 7]: caused accumulation of acetylated alpha-tubulin
- accumulation of acetylated histones [1, 7]: not of acetylated histones
- accumulation of acetylated histones (H3) ([1]; LNCaP cells, FIG. 2): did not cause accumulation of actylated histones; also recorded: without induction of H3 acetylation
- accumulation of acetylated α-tubulin ([1]; LNCaP cells, FIG. 2): caused the accumulation of acetylated α-tubulin; also recorded: significant levels of tubulin acylation were present
- accumulation of acetylated alpha-tubulin [1, 8]: selectively induced accumulation of acetylated alpha-tubulin and acetylated PRX
- accumulation of acetylated histones [1, 8]: not of acetylated histones
- accumulation of acetylated alpha-tubulin [2, 9]: caused accumulation of acetylated alpha-tubulin
- accumulation of acetylated histones [2, 9]: not of acetylated histones
- accumulation of acetylated PRX [2, 10]: selectively induced accumulation of acetylated alpha-tubulin and acetylated PRX
- accumulation of acetylated alpha-tubulin [2, 10]: selectively induced accumulation of acetylated alpha-tubulin and acetylated PRX
- accumulation of acetylated histones [2, 10]: not of acetylated histones
- cell growth (cell number) ([3]; LNCaP, 8, 16, 32 or 64 μM, up to 72 h, FIG. 3): inhibited cell growth of normal and transformed cells in a concentration dependent manner; also recorded: inhibited cell number
- cell death / cell viability ([3]; LNCaP, 8, 16, 32 or 64 μM, up to 72 h, FIG. 4): did not induce cell death of normal or transformed cells; also recorded: does not decrease cell viability
- death of LNCaP cells ([3]; concentrations as high as 32 μM): no detectable death of LNCaP cells
- accumulation of acetylated tubulin in the spleen ([4]; 1.5 h after injection, FIG. 7): increased accumulation of acetylated tubulin
- accumulation of acetylated tubulin in the spleen ([4]; 5 h after injection): reduced to the level seen in vehicle-treated controls
- accumulation of acetylated histones in the spleen ([4]; FIG. 7): no detectable accumulation of acetylated histones
- cell growth and cell viability in combination with etoposide ([5]; LNCaP, 50 μM etoposide and 16 μM compound 8, 72 h, versus etoposide alone): inhibition in cell growth and loss of cell viability to a greater extent than LNCaP cells cultured with etoposide alone; also recorded: enhances etoposide or SAHA-induced transformed cell death
- cell death in combination with SAHA ([5]; LNCaP, compound 8 and 5 μM SAHA, 72 h, versus SAHA alone): cell death is enhanced; also recorded: enhances etoposide or SAHA-induced transformed cell death
- cell death in combination with paclitaxel ([5]; LNCaP, paclitaxel and compound 8, 72 h, versus either drug alone): increases cell death
- cytotoxicity of anti-cancer drugs in transformed cells cultured with compound 8 ([5]; transformed cells, induction of apoptosis and accumulation of DNA damage): enhances the cytotoxicity of anti-cancer drugs
- growth of established CWR22 tumors, single agent [6, 11]: no significant suppression of the growth
- weight loss, single agent [6, 11]: no weight loss
- growth of established CWR22 tumors, combination with etoposide ([6]; daily compound 8 and weekly etoposide, versus vehicle-treated control animals): causes suppression of the growth of established CWR22 tumors; also recorded: significantly enhances the anti-tumor effect of etoposide
